Reference: ChEMBL document CHEMBL5113368, “Meroterpenoids produced by fungi: Occurrence, structural diversity, biological activities, and their molecular targets” (Eur J Med Chem, 2021)
Blank lines part the entries; values can stand above or below the compound they belong to.

How the values were obtained:
[1] = biological target: Epithelial discoidin domain-containing receptor 1 (Homo sapiens, UniProt Q08345); assay: Inhibition of DDR1 (unknown origin) by lanthascreen eu kinase activity assay
[2] = biological target: T1, Prostaglandin G/H synthase 2 (Homo sapiens, UniProt P35354); assay: Inhibition of COX-2 (unknown origin) by fluorescent inhibitor screening assay
T1 sequence (P35354 whole entry): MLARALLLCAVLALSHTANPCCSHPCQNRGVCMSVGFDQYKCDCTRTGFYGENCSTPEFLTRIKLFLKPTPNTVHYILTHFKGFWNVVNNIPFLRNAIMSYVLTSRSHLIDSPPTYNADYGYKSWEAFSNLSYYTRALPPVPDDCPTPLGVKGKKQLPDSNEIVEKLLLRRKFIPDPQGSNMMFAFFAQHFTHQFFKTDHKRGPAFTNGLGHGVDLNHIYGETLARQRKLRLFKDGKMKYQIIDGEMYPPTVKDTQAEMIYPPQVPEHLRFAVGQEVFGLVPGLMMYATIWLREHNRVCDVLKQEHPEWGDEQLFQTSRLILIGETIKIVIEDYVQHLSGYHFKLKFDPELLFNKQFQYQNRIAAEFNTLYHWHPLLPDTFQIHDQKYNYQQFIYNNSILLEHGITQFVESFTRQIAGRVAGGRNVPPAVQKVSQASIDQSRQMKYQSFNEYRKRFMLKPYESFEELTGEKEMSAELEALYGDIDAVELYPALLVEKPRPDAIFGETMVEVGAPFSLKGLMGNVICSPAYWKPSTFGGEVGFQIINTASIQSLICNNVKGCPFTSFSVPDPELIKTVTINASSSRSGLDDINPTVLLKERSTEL

[3] = Inhibition of Saccharomyces cerevisiae alpha-glucosidase using p-nitrophenyl-alpha-D -glucopyranoside as substrate pre-incubated for 10 mins followed by substrate addition measured after 15 mins by absorbance based analysis
[4] = biological target: T2, Tyrosine-protein kinase JAK3 (Homo sapiens, UniProt P52333); assay: Inhibition of JAK3 (unknown origin) by FRET-based Z'-Lyte assay
T2 sequence (P52333 whole entry): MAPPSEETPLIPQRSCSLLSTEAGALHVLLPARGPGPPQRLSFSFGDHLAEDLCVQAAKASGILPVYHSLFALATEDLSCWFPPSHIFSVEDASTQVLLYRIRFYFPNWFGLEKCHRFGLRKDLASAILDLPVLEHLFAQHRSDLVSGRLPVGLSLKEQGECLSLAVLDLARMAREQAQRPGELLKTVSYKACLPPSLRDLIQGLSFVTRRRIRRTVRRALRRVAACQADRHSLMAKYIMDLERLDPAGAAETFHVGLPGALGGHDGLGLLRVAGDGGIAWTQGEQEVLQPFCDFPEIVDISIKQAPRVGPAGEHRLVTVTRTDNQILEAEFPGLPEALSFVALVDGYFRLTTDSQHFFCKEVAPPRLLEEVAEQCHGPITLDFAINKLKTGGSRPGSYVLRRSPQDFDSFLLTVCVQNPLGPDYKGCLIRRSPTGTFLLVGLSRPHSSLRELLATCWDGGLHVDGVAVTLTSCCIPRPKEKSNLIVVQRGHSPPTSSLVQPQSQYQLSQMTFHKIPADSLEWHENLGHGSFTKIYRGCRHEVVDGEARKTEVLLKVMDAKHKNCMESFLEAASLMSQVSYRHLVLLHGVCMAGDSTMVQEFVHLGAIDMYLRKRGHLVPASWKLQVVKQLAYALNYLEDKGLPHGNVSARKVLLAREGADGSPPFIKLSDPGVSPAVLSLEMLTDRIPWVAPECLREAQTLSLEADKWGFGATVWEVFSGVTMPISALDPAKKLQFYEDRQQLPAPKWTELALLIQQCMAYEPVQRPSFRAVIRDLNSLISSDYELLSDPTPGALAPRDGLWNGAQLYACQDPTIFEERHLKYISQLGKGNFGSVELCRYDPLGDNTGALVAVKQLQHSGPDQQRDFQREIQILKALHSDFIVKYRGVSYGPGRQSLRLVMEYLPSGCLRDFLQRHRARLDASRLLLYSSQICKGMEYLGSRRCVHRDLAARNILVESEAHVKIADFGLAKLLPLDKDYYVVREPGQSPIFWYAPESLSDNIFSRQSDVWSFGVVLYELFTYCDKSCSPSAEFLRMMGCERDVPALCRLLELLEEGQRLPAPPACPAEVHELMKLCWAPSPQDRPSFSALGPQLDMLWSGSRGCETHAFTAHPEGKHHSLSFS

K562 = assay: Cytotoxicity against human K562 cells assessed as cell growth inhibition by CCK-8 method; type: functional, cell-based
RAW264.7 = assay: Anti-inflammatory activity in mouse RAW264.7 cells assessed as inhibition of NO production; type: functional, cell-based
KB = assay: Cytotoxicity against human KB cells assessed as cell growth inhibition; type: functional, cell-based
NCI-H187 = assay: Cytotoxicity against human NCI-H187 cells assessed as cell growth inhibition; type: functional, cell-based
[5] = biological target: T3, Pancreatic triacylglycerol lipase (Sus scrofa, UniProt P00591); assay: Inhibition of porcine pancreatic lipase using p-Nitrophenyl butyrate substrate incubated for 15 mins by spectrophotometer analysis
T3 sequence (P00591 whole entry): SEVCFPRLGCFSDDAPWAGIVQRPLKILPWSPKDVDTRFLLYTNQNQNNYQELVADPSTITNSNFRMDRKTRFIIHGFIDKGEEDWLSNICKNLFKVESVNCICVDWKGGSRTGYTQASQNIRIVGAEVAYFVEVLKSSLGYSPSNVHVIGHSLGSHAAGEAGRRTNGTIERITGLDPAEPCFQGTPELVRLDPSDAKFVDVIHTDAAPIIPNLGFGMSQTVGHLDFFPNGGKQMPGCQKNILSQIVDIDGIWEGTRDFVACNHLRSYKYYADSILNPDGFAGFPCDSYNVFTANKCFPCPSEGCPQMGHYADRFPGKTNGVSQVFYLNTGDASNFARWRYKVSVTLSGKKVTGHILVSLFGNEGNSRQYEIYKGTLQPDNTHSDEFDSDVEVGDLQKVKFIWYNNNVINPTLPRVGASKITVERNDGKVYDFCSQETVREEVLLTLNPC

[6] = biological target: T4, Tyrosine-protein phosphatase non-receptor type 1 (Homo sapiens, UniProt P18031); assay: Inhibition of PTP1B (unknown origin) using pNPP as substrate by spectrophotometer analysis
T4 sequence (P18031 whole entry): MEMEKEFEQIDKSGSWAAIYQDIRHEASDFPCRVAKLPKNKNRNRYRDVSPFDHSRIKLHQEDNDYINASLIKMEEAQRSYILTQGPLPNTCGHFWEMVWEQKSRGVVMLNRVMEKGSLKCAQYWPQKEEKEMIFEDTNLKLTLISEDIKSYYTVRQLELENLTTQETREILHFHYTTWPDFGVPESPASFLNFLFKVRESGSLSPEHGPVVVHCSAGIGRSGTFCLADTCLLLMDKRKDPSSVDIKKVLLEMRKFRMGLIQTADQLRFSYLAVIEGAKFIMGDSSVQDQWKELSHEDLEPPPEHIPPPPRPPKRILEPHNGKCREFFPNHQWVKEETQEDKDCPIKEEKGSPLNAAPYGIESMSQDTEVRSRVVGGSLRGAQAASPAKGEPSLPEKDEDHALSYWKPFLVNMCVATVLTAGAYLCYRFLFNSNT

Acetylcholinesterase = Acetylcholinesterase (Homo sapiens, UniProt P22303); assay: Inhibition of AChE (unknown origin)
Chain of Acetylcholinesterase (P22303 whole entry): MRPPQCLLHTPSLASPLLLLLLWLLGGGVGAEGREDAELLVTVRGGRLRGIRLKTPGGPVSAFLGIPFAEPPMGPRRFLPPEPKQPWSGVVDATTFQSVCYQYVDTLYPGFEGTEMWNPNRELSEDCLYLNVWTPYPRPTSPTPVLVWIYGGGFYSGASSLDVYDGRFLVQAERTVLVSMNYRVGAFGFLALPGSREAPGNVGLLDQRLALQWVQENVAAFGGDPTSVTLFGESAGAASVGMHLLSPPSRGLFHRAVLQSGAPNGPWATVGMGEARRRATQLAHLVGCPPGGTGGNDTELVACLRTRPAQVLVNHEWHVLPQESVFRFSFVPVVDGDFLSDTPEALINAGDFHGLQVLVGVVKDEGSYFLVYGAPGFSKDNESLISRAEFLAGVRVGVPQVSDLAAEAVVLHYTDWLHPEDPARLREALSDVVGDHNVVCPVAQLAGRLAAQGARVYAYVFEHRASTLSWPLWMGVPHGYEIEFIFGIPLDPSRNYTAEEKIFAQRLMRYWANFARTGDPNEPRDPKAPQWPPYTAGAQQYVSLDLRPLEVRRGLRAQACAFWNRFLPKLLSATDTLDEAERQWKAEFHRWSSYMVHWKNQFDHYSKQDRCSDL

HL-60 = assay: Cytotoxicity against human HL-60 cells assessed as cell growth inhibition measured after 24 hrs by MTT assay; type: functional, cell-based; details: HL-60, 24 h
THP-1 = assay: Cytotoxicity against human THP-1 cells assessed as cell growth inhibition measured after 24 hrs by MTT assay; type: functional, cell-based; details: THP-1, 24 h

Chain of Epithelial discoidin domain-containing receptor 1 (Q08345 whole entry, the tested form may be a part): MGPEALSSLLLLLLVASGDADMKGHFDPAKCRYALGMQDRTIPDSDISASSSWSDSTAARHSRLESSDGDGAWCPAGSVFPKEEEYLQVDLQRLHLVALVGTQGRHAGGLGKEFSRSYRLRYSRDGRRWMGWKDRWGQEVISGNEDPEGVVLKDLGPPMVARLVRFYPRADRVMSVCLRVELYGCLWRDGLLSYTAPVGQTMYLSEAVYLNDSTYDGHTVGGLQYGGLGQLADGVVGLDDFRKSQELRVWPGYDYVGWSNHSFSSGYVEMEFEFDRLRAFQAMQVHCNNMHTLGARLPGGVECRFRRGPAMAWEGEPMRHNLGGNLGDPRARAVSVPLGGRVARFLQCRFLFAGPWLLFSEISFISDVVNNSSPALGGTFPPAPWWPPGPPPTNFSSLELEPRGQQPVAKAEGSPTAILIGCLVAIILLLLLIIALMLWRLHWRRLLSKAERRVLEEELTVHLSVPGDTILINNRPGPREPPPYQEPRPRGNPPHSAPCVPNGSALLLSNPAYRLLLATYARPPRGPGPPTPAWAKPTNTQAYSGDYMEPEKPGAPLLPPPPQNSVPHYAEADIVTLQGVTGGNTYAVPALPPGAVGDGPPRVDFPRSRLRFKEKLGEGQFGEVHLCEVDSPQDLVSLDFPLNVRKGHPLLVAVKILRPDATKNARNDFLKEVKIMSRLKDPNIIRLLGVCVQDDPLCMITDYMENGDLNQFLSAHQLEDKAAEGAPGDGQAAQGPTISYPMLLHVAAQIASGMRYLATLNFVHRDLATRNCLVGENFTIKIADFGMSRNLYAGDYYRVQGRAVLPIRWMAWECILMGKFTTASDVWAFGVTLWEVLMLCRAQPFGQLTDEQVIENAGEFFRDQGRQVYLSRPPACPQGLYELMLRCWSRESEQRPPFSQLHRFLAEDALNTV

- IC50 [1]: 6.9 µM
SMILES: CO[C@@H]1OC(=O)[C@]2(CC(=O)c3cc(O)ccc3O)C[C@H]3[C@H](C/C=C(\CC(=O)c4cc(O)ccc4O)C(=O)O)C(C=O)=CO[C@H]3[C@]12C

- IC50 [2]: 1.05 µM
SMILES: C/C(=C/CC/C(C)=C/CC[C@]1(C(=O)O)CC(=O)c2cc(O)ccc2O1)C(=O)O

- IC50 [3]: 40.8 µM
SMILES: COC(=O)[C@H](Cc1ccccc1)N1Cc2c(cc(O)c(C/C=C(\C)CC/C=C(\C)C(=O)O)c2O)C1=O

- IC50 [4]: < 10 µM
- IC50 [1]: 8.2 µM
SMILES: CO[C@H]1OC(=O)[C@@]2(CC(=O)c3cc(O)ccc3O)C[C@@H]3[C@@H](C/C=C(\CC(=O)c4cc(O)ccc4O)C(=O)O)C(C=O)=CO[C@@H]3[C@@]12C (racemic)

SMILES: C=C(C)C1CCC2(C(=O)OCC)CC13Oc1c(C/C=C(\CO)CC/C=C(\C)CCC=C(C)C)cc(O)cc1-c1c(O)ccc(c13)O2 (racemic)
- IC50 (K562): 7.68 µM

- IC50 [2]: 3.47 µM
SMILES: C/C(=C/CC/C(C)=C/CC/C(=C/C(=O)c1cc(O)ccc1O)C(=O)O)CO

- IC50 (RAW264.7): 5.9 µM
SMILES: CC1(C)CCC[C@]23C[C@](CC(=O)c4cc(O)ccc4O)(CC[C@@H]12)C(=O)O3

SMILES: CC(=O)O[C@H]1C[C@@H](O)[C@@]2(C)[C@@H](CC[C@]3(C)[C@@H]2[C@@H](O)C[C@]2(C)Oc4oc(C)cc(=O)c4C[C@@H]32)C1(C)C
- IC50 (KB): 32.7 µM
- IC50 (NCI-H187): 32.7 µM

- IC50 [5]: 27.3 µM
SMILES: CC(C)=CCC/C(C)=C/CCC1=C[C@]2(OC1=O)c1cc(O)ccc1OC(=O)[C@@]2(CC/C=C(\C)CCC=C(C)C)CC(=O)c1cc(O)ccc1O (racemic)

- IC50 [6]: 63.1 µM
SMILES: CO[C@@H]1c2c3c(cc(O)c2C(=O)O[C@@H]1C)O[C@@]1(C)[C@@H](O)C[C@H]2C(C)(C)C(=O)C=C[C@]2(C)[C@@H]1C3

- IC50 [2]: 1.38 µM
SMILES: C/C(=C\CC/C(C)=C/CCCC1(O)Oc2ccc(O)cc2C1=O)CO (centres undefined)

- IC50 [5]: 4 µM
SMILES: CC(C)=CCC/C(C)=C/CCC1=C[C@@]2(OC1=O)c1cc(O)ccc1OC(=O)[C@]2(CC/C=C(\C)CCC=C(C)C)CC(=O)c1cc(O)ccc1O

- IC50 [3]: 36.2 µM
SMILES: COC(=O)[C@H](CCCCN1Cc2c(cc(O)c(C/C=C(\C)CC/C=C(\C)C(=O)O)c2O)C1=O)N1Cc2c(cc(O)c(C/C=C(\C)CC/C=C(\C)C(=O)O)c2O)C1=O

SMILES: COc1ccc(-c2cc3c(c(=O)o2)C[C@]2(O)[C@@]4(C)CC[C@@H](O)C(C)(C)[C@]4(O)CC[C@@]2(C)O3)cc1
- IC50 (Acetylcholinesterase): 0.64 µM

SMILES: COC(=O)CC1=C(C)[C@@H]2C[C@@]3(C)C(=O)O[C@H]4O[C@@H](C)C(=O)[C@](C(=O)OC)([C@H]43)[C@@]2(C)CC=C1C(C)(C)OC
- IC50 (HL-60): 7.9 µM
- IC50 (THP-1): 11.3 µM

- IC50 [6]: 71.6 µM
SMILES: C[C@@H]1Cc2c3c(c(Cl)c(O)c2C(=O)O1)O[C@@]1(C)[C@@H](O)C[C@H]2C(C)(C)C(=O)C(Cl)(Cl)C[C@]2(C)[C@@H]1C3
